Measured values: US20240180900A1, “COMPOUNDS AND METHODS FOR THE TARGETED DEGRADATION OF ANDROGEN RECEPTOR” (Arvinas Operations, Inc., priority 2022, published 2024)

Legend:
VCaP tumor xenograft [1] = assay: VCaP tumor xenograft study in intact (non-castrated) mice; assay type: in vivo, mouse; conditions: enzalutamide 20 mg/kg orally QD for 21 days
Description: To mimic higher androgen levels found in an incomplete testosterone suppression environment, intact (non-castrated) mice were employed for a VCaP tumor xenograft study.

PSA = assay: intracellular PSA ELISA in VCaP cells; assay type: cell-based; conditions: Homo sapiens, CSS + 0.1 nM R1881, 48 hours, read-out: IC50, inhibiting PSA expression
Protocol: Intracellular prostate specific antigen (PSA) levels were determined using a PSA enzyme-linked immunosorbent assay (ELISA). […] The cell proliferation was determined using the CellTiter-Glo® assay. […] The CaspaseGlo® assay was carried out to measure the level of apoptosis in cells.
To evaluate the pharmacological effect of Compound A in vitro, PSA, cell proliferation, and apoptosis assays were carried out in VCaP cells.

prostate = assay: 10-day prostate involution study in rats; assay type: in vivo, rat; conditions: enzalutamide 100 mg/kg/day orally, 10 days, intact rats
Protocol: Enzalutamide and Compound A were orally administered once daily at the indicated doses. After 10 days of treatment, the prostate tissue from each rat was isolated and weighed. Treatment groups (n=5 per group) were compared by one way ANOVA. Note: ns: not significant, *: p<0.05, **: p≤0.01.
To substantiate the on-target mechanism of Compound A, a prostate involution study was conducted in rats. […] Twenty-four hours after the last dose, the rats were euthanized, and the prostate organs were isolated and weighed.

VCaP tumor xenograft [2] = conditions: cited from earlier work
cereblon = cereblon (Homo sapiens, UniProt Q96SW2); conditions: pomalidomide 10 μM
Chain of cereblon (Q96SW2 whole entry): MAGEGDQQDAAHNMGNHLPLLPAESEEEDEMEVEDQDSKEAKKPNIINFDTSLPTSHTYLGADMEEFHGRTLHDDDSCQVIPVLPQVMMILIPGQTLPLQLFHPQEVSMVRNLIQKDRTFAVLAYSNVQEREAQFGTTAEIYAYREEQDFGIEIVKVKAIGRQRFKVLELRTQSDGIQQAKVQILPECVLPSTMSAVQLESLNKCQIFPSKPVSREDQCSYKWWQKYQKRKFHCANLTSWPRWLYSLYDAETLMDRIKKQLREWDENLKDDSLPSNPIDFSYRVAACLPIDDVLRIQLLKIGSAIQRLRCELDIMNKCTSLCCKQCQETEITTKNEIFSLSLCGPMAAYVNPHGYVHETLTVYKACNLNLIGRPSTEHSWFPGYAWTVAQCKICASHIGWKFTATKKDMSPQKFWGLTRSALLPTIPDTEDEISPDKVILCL

Row | Structure (SMILES) | tumor growth inhibition (TGI) (VCaP tumor xenograft [1]) [%] | IC50 (PSA) [nM] | Mean (±SEM) prostate weights (prostate) [mg] | activity in the intact VCaP setting (published data) (VCaP tumor xenograft [2]) | effect on Compound A mediated AR degradation (cereblon)
1 | CNC(=O)c1ccc(N2C(=S)N(c3ccc(C#N)c(C(F)(F)F)c3)C(=O)C2(C)C)cc1F [enzalutamide, reference compound] | 27 | 175 | 818 ± 170 | very modest activity, or no activity at all | 
2 | Nc1cccc2c1C(=O)N(C1CCC(=O)NC1=O)C2=O (centres unmarked) [pomalidomide] |  |  |  |  | blocked Compound A mediated degradation
